Test results from US20080201790A1, “Method and product for regulating cell responsiveness to external signals” (priority 1993, published 2008).

Tests used:
L929 cells = assay: Neutral red cell viability assay of L929 cells treated with TNFα and/or bFGF; assay type: cell-based, murine
Protocol: In panel A cells were treated with the indicated concentrations of TNFα for 15 hours and were assayed for uptake of neutral red. In panel B cells were untreated (solid bars), treated with 0.5 ng/ml bFGF (dotted bars) or 5.0 ng/ml bFGF (hatched bars) and the indicated concentrations of TNFα for 18 hours. Cell viability was assessed by neutral red assay.
In panel A serum starved L929 cells were untreated or treated for 1 hour at 37° C. with the MEK-1 inhibitor (PD) and then unstimulated or stimulated with bFGF. MAPK activity was measured. In panel B L929 cells were untreated or treated for 1 hour at 37° C. with PD and then were untreated or treated with TNFα alone or in combination with bFGF for 18 hours. Cell viability was assessed by neutral red assay.
Cell lines and culture. L929 cells (ATCC CCL1 were maintained in Dulbecco's modified Eagle's medium with 5% newborn calf serum and 5% bovine calf serum (BCS) supplemented with 100 ug/ml streptomycin and 100 U/ml penicillin. The cells were grown in 10 cm dishes at 37° C. in 7.5% CO2. Cells were made quiescent where indicated by incubation in Dulbecco's modified Eagle's medium and 0.1% bovine serum albumin for 24 h. Recombinant murine TNFα and recombinant human bFGF (147aa) were from R&D Systems, Minneapolis, Minn. Cells were pretreated where indicated with the MEK-1 inhibitor PD#098059 (Parke-Davis Pharmaceutical Corp. Ann Arbor, Mich.) for 1 h at 37° C. Cells were stimulated by incubation with the indicated cytokine or growth factor for various times at 37° C. Stimulation was stopped by rinsing the plates twice with ice cold phosphate buffered saline (PBS) and lysing the cells in the appropriate lysis buffer. Cells were scraped from the plates and nuclei were pelleted for 10 min at 14,000 RPM in a microcentrifuge. JNK assay. JNK activity was measured using a solid state kinase assay in which glutathione S-transferase-c-Jun (1-79) (GST-JUN) cound to glutathione-Sepharose 4B beads was used to affinity purify JNK and then JNK activity was measured in an in vitro kinase assay using the sepharose bound GST-Jun as a substrate (Hibi, M., et al. (1993) Genes & Development 7:2135-2148). Stimulated or unstimulated cells were lysed in 0.5% Nonidet P-40, 20 mM HEPES pH 7.2, 100 mM NaCl, 2 mM dithiothreitol, 1 mM EDTA, 1.0 mM phenylmethylsulfonylfluoride, 1 μg/ml aprotinin and the nuclei pelleted. Lysates were normalized for protein content. JNK was affinity purified from 50-100 μg of cell lysate by the addition of 10 ul of GST-Jun sepharose slurry (2 μg GST-Jun). Binding to GST-Jun efficiently isolates the two major forms of JNK (p45 and p55) and under the conditions used JNK isolation was linear for 10-250 μg of cell lysate. The lysates were rotated at 4° C. for 1-3 h. Beads were washed twice in lysis buffer and then twice in PAN (10 mM PIPES, pH 7.0, 100 mM NaCl, 21 μg/ml aprotinin). Kinase reactions were carried out at 30° C. for 15 min in 20 mM Hepes pH 7.2, 20 mM β-glycerophosphate, 10 mM p-nitrophenyl phosphate, 10 mM MgCl2, 1 mM dithiothreitol, 50 μm sodium vanadate, 10 μCi γ^32P-ATP 4300 Ci/mmole. The kinase reaction was linear from 0-30 min. MAPK Assay MAPK activity was measured exactly as described previously (Gardner, A. M., et al. (1994) Meth. Enzymol. 238:258-270) with the exception that MonoQ FPLC fractionation was replaced by step elution from a DEAE-Sephacel column using 0.5 M NaCl in loading buffer. The eluate was assayed in triplicate using the epidermal growth factor receptor 662-681 peptide (EGFR662-681) as a selective substrate for MAPK activity (Heasley, L. E., et al. (1994) American Journal of Physiology (Renal Fluid Electrolyte Physiol. 36) 267:F366-F373). […]

MEKK2 = assay: Cellular localization of MEKK2 in Swiss 3T3 cells, antibody staining; assay type: cell-based; conditions: serum starved Swiss 3T3 cells, 10 minutes
Source text: (§1) Cells were fixed and stained with an antibody specifically recognizing either MEKK1 or MEKK2. Secondary FITC-conjugated anti-rabbit IgG antibody was used for staining.

MEKK1 = assay: Cellular localization of MEKK1 in Swiss 3T3 cells, antibody staining; assay type: cell-based; conditions: serum starved Swiss 3T3 cells, 10 minutes
Source text: as §1

L929 fibroblasts = assay: TNF-induced apoptosis in L929 fibroblasts with Lac Switch MEKK1COOH expression; assay type: cell-based, murine
Source text: In L929 cells expressing the MEKK1COOH domain, exposure to TNF and IPTG increased the percentage of apoptotic cells to 40%, approximately a 2-fold increase.

Substance: bFGF: recombinant human bFGF (147aa), basic fibroblast growth factor
- effect on TNFα-mediated cell death (L929 cells; L929 cells): effective at blocking
- cell number in the absence of TNFα (L929 cells; bFGF alone): did not measurably increase cell number

Substance: TNFα
- cellular localization of MEKK2 (MEKK2): induced a translocation of MEKK2 to the plasma membrane
- cellular localization of MEKK1 (MEKK1): had no effect on the cellular localization of MEKK1
- time required to induce a similar level of L929 cell death (L929 cells; 1 ng/ml TNFα): 24 to 48 h
- L929 cells being apoptotic (L929 cells; 10 ng/ml TNFα, 15 hr): greater than 40%
- percentage of apoptotic cells, control L929 cells (L929 fibroblasts; TNF exposure, presence or absence of IPTG): approximately 20%
- level of apoptotic cells, L929 cells expressing the kinase inactive mutant (L929 fibroblasts; exposure to TNF): did not increase the level of apoptotic cells above levels seen in controls
- increase of percentage of apoptotic cells, MEKK1COOH cells versus control (L929 fibroblasts; exposure to TNF and IPTG): ~2 fold
- percentage of apoptotic cells, L929 cells expressing the MEKK1COOH domain (L929 fibroblasts; exposure to TNF and IPTG): 40%
